Key:
Test in all cases: Radiometric kinase panel
Type in all cases: biochemical
BMPR1A = target: T1, BMPR1A (Homo sapiens, UniProt P36894)
T1 construct: either as full-length or enzymatically active fragments; purchased ProQinase GmbH (Reaction Biology)
In short: (§1)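 Activity was measured radiometrically from [gamma-33P]-ATP incorporation into substrate. The kinases were recombinant human GST- or His-tagged proteins, full-length or active fragments, expressed in Sf9 or E. coli. Compound in 10% DMSO was added before the enzyme/substrate mix, which started the reaction.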

BUB1B = target: T2, BUB1B (Homo sapiens, UniProt O60566)
T2 construct: either as full-length or enzymatically active fragments; purchased ProQinase GmbH (Reaction Biology); host or cells: Sf9 insect cells or E. coli
In short: as §1

CDC42BPB = target: T3, CDC42BPB (Homo sapiens, UniProt Q9Y5S2)
T3 construct: either as full-length or enzymatically active fragments; purchased ProQinase GmbH (Reaction Biology)
In short: as §1

CDC7/DBF4 = target: T4, CDC7/DBF4 (Homo sapiens, UniProt O00311)
T4 construct: purchased ProQinase GmbH (Reaction Biology)
In short: as §1

CDK1/CycA2 = target: T5, CDK1/CycA2 (Homo sapiens, UniProt P06493)
T5 construct: either as full-length or enzymatically active fragments; purchased ProQinase GmbH (Reaction Biology)
In short: as §1

CDK6/CycD2 = target: T6, CDK6/CycD2 (Homo sapiens, UniProt Q00534)
T6 construct: either as full-length or enzymatically active fragments; purchased ProQinase GmbH (Reaction Biology)
T6 sequence (Q00534 whole entry, the tested form may be a part): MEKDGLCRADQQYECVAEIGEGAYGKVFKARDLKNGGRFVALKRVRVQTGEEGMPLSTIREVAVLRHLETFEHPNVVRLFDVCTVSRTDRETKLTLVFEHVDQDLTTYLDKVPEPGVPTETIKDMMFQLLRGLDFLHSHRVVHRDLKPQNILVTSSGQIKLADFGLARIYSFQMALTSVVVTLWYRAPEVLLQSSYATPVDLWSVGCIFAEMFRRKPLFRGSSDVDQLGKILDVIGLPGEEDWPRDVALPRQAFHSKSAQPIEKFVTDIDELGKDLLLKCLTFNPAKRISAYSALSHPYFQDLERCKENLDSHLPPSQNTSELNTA
T6 sequence (P30279 whole entry partner, the tested form may be a part): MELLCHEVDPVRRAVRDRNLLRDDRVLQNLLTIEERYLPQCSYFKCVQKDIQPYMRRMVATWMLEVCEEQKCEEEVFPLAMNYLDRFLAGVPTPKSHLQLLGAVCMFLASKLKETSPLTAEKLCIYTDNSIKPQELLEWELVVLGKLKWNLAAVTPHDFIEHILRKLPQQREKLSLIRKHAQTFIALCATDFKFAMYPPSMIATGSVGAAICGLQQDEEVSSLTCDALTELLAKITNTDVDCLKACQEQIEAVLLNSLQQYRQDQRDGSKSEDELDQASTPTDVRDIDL
In short: as §1

CDK9/CycT1 = target: T7, CDK9/CycT1 (Homo sapiens, UniProt P50750)
T7 construct: either as full-length or enzymatically active fragments; purchased ProQinase GmbH (Reaction Biology)
T7 sequence (P50750 whole entry, the tested form may be a part): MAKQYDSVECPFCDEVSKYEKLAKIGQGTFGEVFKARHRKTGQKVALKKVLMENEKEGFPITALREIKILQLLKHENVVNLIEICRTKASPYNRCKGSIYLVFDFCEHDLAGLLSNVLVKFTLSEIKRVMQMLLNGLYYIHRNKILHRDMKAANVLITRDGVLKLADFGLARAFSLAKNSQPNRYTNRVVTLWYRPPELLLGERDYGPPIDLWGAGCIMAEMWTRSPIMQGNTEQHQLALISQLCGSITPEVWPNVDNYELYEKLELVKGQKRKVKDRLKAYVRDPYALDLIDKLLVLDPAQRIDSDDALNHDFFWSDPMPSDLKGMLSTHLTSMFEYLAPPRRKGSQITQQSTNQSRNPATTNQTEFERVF
T7 sequence (O60563 whole entry partner, the tested form may be a part): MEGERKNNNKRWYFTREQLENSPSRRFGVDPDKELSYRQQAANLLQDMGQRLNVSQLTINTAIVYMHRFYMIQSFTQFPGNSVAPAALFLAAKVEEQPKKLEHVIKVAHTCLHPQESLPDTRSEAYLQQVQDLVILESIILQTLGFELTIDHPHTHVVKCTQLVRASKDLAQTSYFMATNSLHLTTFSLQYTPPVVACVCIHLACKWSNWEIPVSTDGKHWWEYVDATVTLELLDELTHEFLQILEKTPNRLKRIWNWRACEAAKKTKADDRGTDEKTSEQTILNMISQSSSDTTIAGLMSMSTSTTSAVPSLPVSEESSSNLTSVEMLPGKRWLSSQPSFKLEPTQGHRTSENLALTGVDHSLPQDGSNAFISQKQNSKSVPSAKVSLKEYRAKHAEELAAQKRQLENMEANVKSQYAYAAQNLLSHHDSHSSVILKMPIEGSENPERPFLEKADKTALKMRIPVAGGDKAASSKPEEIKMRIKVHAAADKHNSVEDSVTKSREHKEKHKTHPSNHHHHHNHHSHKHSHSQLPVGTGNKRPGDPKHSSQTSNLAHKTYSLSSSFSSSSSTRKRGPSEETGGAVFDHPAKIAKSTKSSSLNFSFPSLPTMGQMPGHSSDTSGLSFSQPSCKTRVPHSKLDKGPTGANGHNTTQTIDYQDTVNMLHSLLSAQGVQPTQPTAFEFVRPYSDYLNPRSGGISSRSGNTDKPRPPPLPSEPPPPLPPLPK
In short: as §1

CLK3 = target: T8, CLK3 (Homo sapiens, UniProt P49761)
T8 construct: either as full-length or enzymatically active fragments; purchased ProQinase GmbH (Reaction Biology)
In short: as §1

CSF1R = target: T9, CSF1R (Homo sapiens, UniProt P07333)
T9 construct: either as full-length or enzymatically active fragments; purchased ProQinase GmbH (Reaction Biology); host or cells: Sf9 insect cells or E. coli
In short: as §1

EPHA6 = target: T10, EPHA6 (Homo sapiens, UniProt Q9UF33)
T10 construct: either as full-length or enzymatically active fragments; purchased ProQinase GmbH (Reaction Biology)
In short: as §1

ERK1 = target: T11, ERK1 (Homo sapiens, UniProt P27361)
T11 construct: either as full-length or enzymatically active fragments; purchased ProQinase GmbH (Reaction Biology)
In short: as §1

FGFR1 = target: T12, FGFR1 (Homo sapiens, UniProt P11362)
T12 construct: either as full-length or enzymatically active fragments; purchased ProQinase GmbH (Reaction Biology)
In short: as §1

FYN = target: T13, FYN (Homo sapiens, UniProt P06241)
T13 construct: purchased ProQinase GmbH (Reaction Biology)
In short: as §1

HCK = target: T14, HCK (Homo sapiens, UniProt P08631)
T14 construct: purchased ProQinase GmbH (Reaction Biology)
In short: as §1

JAK3 = target: T15, JAK3 (Homo sapiens, UniProt P52333)
T15 construct: purchased ProQinase GmbH (Reaction Biology)
In short: as §1

MAPKAPK2 = target: T16, MAPKAPK2 (Homo sapiens, UniProt P49137)
T16 construct: either as full-length or enzymatically active fragments; purchased ProQinase GmbH (Reaction Biology); host or cells: Sf9 insect cells or E. coli
In short: as §1

MARK1 = target: T17, MARK1 (Homo sapiens, UniProt Q9P0L2)
T17 construct: purchased ProQinase GmbH (Reaction Biology)
T17 sequence (Q9P0L2 whole entry): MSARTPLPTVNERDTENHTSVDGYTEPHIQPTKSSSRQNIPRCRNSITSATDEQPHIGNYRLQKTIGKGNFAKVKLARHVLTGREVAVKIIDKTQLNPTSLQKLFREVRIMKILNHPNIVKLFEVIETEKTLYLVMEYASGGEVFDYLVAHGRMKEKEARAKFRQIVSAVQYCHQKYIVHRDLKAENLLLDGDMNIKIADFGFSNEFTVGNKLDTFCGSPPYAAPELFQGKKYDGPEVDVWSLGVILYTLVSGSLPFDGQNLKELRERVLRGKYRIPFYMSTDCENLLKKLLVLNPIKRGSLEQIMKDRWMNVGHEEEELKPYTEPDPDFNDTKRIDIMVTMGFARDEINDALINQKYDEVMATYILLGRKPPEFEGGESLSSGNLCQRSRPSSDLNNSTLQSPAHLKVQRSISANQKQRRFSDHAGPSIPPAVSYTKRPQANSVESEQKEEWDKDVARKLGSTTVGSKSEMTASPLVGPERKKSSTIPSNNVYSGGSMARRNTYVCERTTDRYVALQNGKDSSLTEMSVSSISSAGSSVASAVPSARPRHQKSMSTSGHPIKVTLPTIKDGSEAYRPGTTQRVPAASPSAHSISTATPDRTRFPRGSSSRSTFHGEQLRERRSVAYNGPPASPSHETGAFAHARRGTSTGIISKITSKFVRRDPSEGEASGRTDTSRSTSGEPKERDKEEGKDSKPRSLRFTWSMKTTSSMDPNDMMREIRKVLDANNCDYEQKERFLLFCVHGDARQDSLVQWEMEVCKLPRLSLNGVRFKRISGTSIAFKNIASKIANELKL
In short: as §1

MERTK = target: T18, MERTK (Homo sapiens, UniProt Q12866)
T18 construct: either as full-length or enzymatically active fragments; purchased ProQinase GmbH (Reaction Biology)
T18 sequence (Q12866 21-999): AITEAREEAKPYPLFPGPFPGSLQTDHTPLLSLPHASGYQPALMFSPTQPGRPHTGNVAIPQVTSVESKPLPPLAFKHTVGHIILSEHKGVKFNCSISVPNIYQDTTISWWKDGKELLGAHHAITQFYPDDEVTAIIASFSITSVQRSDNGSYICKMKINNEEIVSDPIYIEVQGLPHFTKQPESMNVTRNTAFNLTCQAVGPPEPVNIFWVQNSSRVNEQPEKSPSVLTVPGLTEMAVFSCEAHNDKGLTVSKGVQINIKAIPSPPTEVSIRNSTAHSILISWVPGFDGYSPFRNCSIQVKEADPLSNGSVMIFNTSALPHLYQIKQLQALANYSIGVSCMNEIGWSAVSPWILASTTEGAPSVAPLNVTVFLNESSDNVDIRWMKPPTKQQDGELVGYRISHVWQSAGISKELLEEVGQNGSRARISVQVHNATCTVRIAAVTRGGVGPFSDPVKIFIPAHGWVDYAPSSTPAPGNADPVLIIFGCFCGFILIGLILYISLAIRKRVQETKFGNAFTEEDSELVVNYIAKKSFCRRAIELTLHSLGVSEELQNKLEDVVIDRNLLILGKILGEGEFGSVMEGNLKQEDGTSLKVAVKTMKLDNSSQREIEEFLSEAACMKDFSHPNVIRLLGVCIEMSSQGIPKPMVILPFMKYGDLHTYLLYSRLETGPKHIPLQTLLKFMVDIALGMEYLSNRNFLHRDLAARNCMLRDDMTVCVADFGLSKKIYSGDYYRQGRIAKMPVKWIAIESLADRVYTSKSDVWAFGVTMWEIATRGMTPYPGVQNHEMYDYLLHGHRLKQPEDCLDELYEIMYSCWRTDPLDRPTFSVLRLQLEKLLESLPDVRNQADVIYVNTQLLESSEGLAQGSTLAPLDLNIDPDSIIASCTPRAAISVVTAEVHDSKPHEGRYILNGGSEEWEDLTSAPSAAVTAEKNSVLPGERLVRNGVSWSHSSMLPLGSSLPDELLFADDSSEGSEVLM
In short: as §1

MKNK2 = target: T19, MKNK2 (Homo sapiens, UniProt Q9HBH9)
T19 construct: either as full-length or enzymatically active fragments; purchased ProQinase GmbH (Reaction Biology)
In short: as §1

NEK3 = target: T20, NEK3 (Homo sapiens, UniProt P51956)
T20 construct: either as full-length or enzymatically active fragments; purchased ProQinase GmbH (Reaction Biology)
T20 sequence (P51956 whole entry, the tested form may be a part): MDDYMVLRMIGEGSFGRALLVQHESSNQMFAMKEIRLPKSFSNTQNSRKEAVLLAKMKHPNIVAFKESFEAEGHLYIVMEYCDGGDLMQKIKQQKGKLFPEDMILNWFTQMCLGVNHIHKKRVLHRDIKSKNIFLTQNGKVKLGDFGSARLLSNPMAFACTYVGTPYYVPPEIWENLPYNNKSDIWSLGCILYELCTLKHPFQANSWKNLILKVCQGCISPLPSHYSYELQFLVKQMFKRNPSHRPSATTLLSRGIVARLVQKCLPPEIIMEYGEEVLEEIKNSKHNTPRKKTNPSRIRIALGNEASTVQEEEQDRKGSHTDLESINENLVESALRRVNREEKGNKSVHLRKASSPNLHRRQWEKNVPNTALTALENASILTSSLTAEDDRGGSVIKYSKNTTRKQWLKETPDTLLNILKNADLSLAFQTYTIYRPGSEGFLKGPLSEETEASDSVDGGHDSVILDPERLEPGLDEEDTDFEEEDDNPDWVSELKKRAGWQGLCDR
In short: as §1

PAK2 = target: T21, PAK2 (Homo sapiens, UniProt Q13177)
T21 construct: either as full-length or enzymatically active fragments; purchased ProQinase GmbH (Reaction Biology)
In short: as §1

PAK3 = target: T22, PAK3 (Homo sapiens, UniProt O75914)
T22 construct: purchased ProQinase GmbH (Reaction Biology); host or cells: Sf9 insect cells or E. coli (not specified per kinase)
In short: as §1

PDGFRbeta = target: T23, PDGFRbeta (Homo sapiens, UniProt P09619)
T23 construct: either as full-length or enzymatically active fragments; purchased ProQinase GmbH (Reaction Biology)
In short: as §1

PKCtheta = target: T24, PKCtheta (Homo sapiens, UniProt Q04759)
T24 construct: purchased ProQinase GmbH (Reaction Biology); host or cells: Sf9 insect cells or E. coli (not specified per kinase)
In short: as §1

PRK1 = target: T25, PRK1 (Homo sapiens, UniProt Q16512)
T25 construct: purchased ProQinase GmbH (Reaction Biology)
T25 sequence (Q16512 whole entry): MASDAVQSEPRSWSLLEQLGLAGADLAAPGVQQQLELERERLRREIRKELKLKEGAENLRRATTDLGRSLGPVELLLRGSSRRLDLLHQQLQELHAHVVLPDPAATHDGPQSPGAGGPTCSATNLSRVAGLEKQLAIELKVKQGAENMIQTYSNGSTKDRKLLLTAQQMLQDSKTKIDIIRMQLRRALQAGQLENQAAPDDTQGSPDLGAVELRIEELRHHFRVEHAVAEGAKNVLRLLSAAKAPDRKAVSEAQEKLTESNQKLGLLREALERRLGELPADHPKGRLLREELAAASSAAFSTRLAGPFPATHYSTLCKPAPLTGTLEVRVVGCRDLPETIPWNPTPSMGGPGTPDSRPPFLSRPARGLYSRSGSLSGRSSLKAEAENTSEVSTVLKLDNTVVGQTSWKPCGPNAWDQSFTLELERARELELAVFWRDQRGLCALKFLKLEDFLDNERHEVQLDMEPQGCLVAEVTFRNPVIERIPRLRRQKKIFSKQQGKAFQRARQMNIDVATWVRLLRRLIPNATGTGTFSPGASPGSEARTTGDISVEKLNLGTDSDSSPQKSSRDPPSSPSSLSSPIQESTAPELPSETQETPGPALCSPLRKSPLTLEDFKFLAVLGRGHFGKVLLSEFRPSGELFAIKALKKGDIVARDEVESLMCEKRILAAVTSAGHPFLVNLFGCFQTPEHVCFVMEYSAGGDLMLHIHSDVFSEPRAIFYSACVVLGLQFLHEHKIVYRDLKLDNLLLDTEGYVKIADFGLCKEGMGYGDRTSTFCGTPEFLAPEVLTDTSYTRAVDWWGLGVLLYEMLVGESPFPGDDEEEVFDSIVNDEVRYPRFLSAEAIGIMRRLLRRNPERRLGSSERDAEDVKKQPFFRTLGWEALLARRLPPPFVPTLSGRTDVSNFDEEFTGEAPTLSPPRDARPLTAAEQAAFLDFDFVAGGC
In short: as §1

SIK1 = target: T26, SIK1 (Homo sapiens, UniProt P57059)
T26 construct: either as full-length or enzymatically active fragments; purchased ProQinase GmbH (Reaction Biology)
In short: as §1

TNK1 = target: T27, TNK1 (Homo sapiens, UniProt Q13470)
T27 construct: either as full-length or enzymatically active fragments; purchased ProQinase GmbH (Reaction Biology)
In short: as §1

TTK = target: T28, TTK (Homo sapiens, UniProt P33981)
T28 construct: either as full-length or enzymatically active fragments; purchased ProQinase GmbH (Reaction Biology); host or cells: Sf9 insect cells or E. coli
In short: as §1

TYRO3 = target: T29, TYRO3 (Homo sapiens, UniProt Q06418)
T29 construct: either as full-length or enzymatically active fragments; purchased ProQinase GmbH (Reaction Biology)
In short: as §1

ULK2 = target: T30, ULK2 (Homo sapiens, UniProt Q8IYT8)
T30 construct: either as full-length or enzymatically active fragments; purchased ProQinase GmbH (Reaction Biology)
In short: as §1

VEGFR3 = target: T31, VEGFR3 (Homo sapiens, UniProt P35916)
T31 construct: either as full-length or enzymatically active fragments; purchased ProQinase GmbH (Reaction Biology)
In short: as §1

Compound: C=CC(=O)Nc1ccc(C(=O)N2CC[C@@H](Nc3ncc(C#N)cn3)C2)cc1 [Compound 4, (R)-N-(4-(3-((5-cyanopyrimidin-2-yl)amino)pyrrolidine-1-carbonyl)phenyl)acrylamide]
- inhibition at 1 µM (BMPR1A): 2%
- inhibition at 1 µM (BUB1B): 13%
- inhibition at 1 µM (CDC42BPB): 7%
- inhibition at 1 µM (CDC7/DBF4): -2%
- inhibition at 1 µM (CDK1/CycA2): 17%
- inhibition at 1 µM (CDK6/CycD2): -14%
- inhibition at 1 µM (CDK9/CycT1): 27%
- inhibition at 1 µM (CLK3): -9%
- inhibition at 1 µM (CSF1R): 14%
- inhibition at 1 µM (EPHA6): 5%
- inhibition at 1 µM (ERK1): -4%
- inhibition at 1 µM (FGFR1): 3%
- inhibition at 1 µM (FYN): -2%
- inhibition at 1 µM (HCK): 0%
- inhibition at 1 µM (JAK3): -1%
- inhibition at 1 µM (MAPKAPK2): -24%
- inhibition at 1 µM (MARK1): 0%
- inhibition at 1 µM (MERTK): -8%
- inhibition at 1 µM (MKNK2): 4%
- inhibition at 1 µM (NEK3): 6%
- inhibition at 1 µM (PAK2): 16%
- inhibition at 1 µM (PAK3): 1%
- inhibition at 1 µM (PDGFRbeta): 6%
- inhibition at 1 µM (PKCtheta): 1%
- inhibition at 1 µM (PRK1): -1%
- inhibition at 1 µM (SIK1): 7%
- inhibition at 1 µM (TNK1): 2%
- inhibition at 1 µM (TTK): 12%
- inhibition at 1 µM (TYRO3): -3%
- inhibition at 1 µM (ULK2): 3%
- inhibition at 1 µM (VEGFR3): -5%

Source: patent US20230074545A1, “TREATMENT OF CANCER WITH CDK12/13 INHIBITORS” (Kinnate Biopharma Inc., priority 2019, published 2023)
